Laboratory results as given in US20220323406A1, “METHODS AND COMPOSITIONS FOR DIFFERENTIATING STEM CELLS” (Massachusetts Institute of Technology, priority 2019, published 2022).

What was measured:
[1] = system: ENR+CD organoids (ISC to Paneth cell differentiation); assay: Primary screen: basal (non-stimulated) lysozyme secretion LYZ.NS, 2.5-D 384-well ENR+CD organoid differentiation; type: cell-based, mouse; conditions: primary screen; for Z.LYZ.NS: standard z score; for Dose.FC.LYZ.NS: FC vs plate median
Excerpt: (§1) High-throughput screening.

[2] = system: ENR+CD organoids (ISC to Paneth cell differentiation); assay: Primary screen: CCh-stimulated lysozyme secretion LYZ.S, 2.5-D 384-well ENR+CD organoid differentiation; type: cell-based, mouse; conditions: primary screen; for Dose.FC.LYZ.S: FC vs plate median
Excerpt: as §1

ENR+CD organoids = assay: Primary screen: ATP (CellTiter-Glo 3D, CTG) cell number/viability, 2.5-D 384-well ENR+CD organoids; conditions: primary screen; for Dose.FC.CTG: FC vs plate median; for Z.CTG: standard z score;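 as to all read-outs here: compounds given at plating and again on day 3 over a 6-day differentiation from ENR+CV stem-cell-enriched precursors, ATP measured on day 6, plate median as control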

| SMILES | Dose.FC.LYZ.NS (log2 fold change) ([1]; dose 0.08 uM) | Z.LYZ.NS (standard z score) ([1]; dose 0.08 uM) | Dose.FC.LYZ.NS (log2 fold change) ([1]; dose 0.40 uM) | Z.LYZ.NS (standard z score) ([1]; dose 0.40 uM) | Dose.FC.LYZ.NS (log2 fold change) ([1]; dose 2.00 uM) | Z.LYZ.NS (standard z score) ([1]; dose 2.00 uM) | Dose.FC.LYZ.NS (log2 fold change) ([1]; dose 10.00 uM) | Z.LYZ.NS (standard z score) ([1]; dose 10.00 uM) | Dose.FC.LYZ.S (log2 fold change) ([2]; dose 0.08 uM) | Dose.FC.LYZ.S (log2 fold change) ([2]; dose 0.40 uM) | Dose.FC.LYZ.S (log2 fold change) ([2]; dose 2.00 uM) | Dose.FC.LYZ.S (log2 fold change) ([2]; dose 10.00 uM) | Dose.FC.CTG (log2 fold change) (ENR+CD organoids; dose 0.08 uM) | Dose.FC.CTG (log2 fold change) (ENR+CD organoids; dose 0.40 uM) | Dose.FC.CTG (log2 fold change) (ENR+CD organoids; dose 2.00 uM) | Dose.FC.CTG (log2 fold change) (ENR+CD organoids; dose 10.00 uM) | Z.LYZ.NS ([1]; dose 0.08 uM) | Z.LYZ.NS ([1]; dose 0.40 uM) | Z.LYZ.NS ([1]; dose 2.00 uM) | Z.LYZ.NS ([1]; dose 10.00 uM) | also measured |
| --- | --- | --- | --- | --- | --- | --- | --- | --- | --- | --- | --- | --- | --- | --- | --- | --- | --- | --- | --- | --- | --- |
| CCCCc1nc(Cl)c(CO)n1Cc1ccc(-c2ccccc2-c2nnn[n-]2)cc1.[K+] [Losartan Potassium (DuP 753)] | 0.052 | 0.449 | 0.038 | 0.329 | −0.042 | −0.362 | 0.062 | 0.540 | −0.017 | 0.027 | −0.080 | −0.025 | −0.152 | −0.175 | −0.081 | −0.137 | – | – | – | – | Z.CTG (standard z score) (ENR+CD organoids; dose 0.08 uM): −0.362; Z.CTG (standard z score) (ENR+CD organoids; dose 0.40 uM): −0.418; Z.CTG (standard z score) (ENR+CD organoids; dose 2.00 uM): −0.193; Z.CTG (standard z score) (ENR+CD organoids; dose 10.00 uM): −0.328 |
| CC[C@H](C)C(=O)O[C@H]1C[C@@H](C)C=C2C=C[C@H](C)[C@H](CC[C@@H]3C[C@@H](O)CC(=O)O3)[C@H]21 [Lovastatin] | 0.002 | 0.017 | −0.057 | −0.492 | −0.279 | −2.430 | −0.271 | −2.362 | −0.023 | −0.049 | −0.398 | −0.409 | −0.322 | −0.492 | −1.174 | −1.391 | – | – | – | – | – |
| CC(C)CCNC(=O)[C@H](CC(C)C)NC(=O)[C@H]1O[C@@H]1C(=O)O [Loxistatin Acid (E-64C)] | 0.147 | 1.283 | 0.061 | 0.534 | 0.055 | 0.482 | 0.004 | 0.031 | 0.125 | 0.105 | 0.037 | 0.021 | 0.086 | 0.156 | 0.080 | 0.094 | – | – | – | – | Z.CTG (standard z score) (ENR+CD organoids; dose 0.08 uM): 0.206; Z.CTG (standard z score) (ENR+CD organoids; dose 0.40 uM): 0.373; Z.CTG (standard z score) (ENR+CD organoids; dose 2.00 uM): 0.191; Z.CTG (standard z score) (ENR+CD organoids; dose 10.00 uM): 0.224 |
| C=CCn1c(=O)c2cnc(Nc3ccc(N4CCN(C)CC4)cc3)nc2n1-c1cccc(C(C)(C)O)n1 [MK-1775] | – | – | – | – | – | – | – | – | – | – | – | – | – | – | – | – | 0.334 | −1.331 | −1.869 | −1.574 | Dose.FC.LYZ.NS ([1]; dose 0.08 uM): 0.038 log2 fold change; Dose.FC.LYZ.NS ([1]; dose 0.40 uM): −0.153 log2 fold change; Dose.FC.LYZ.NS ([1]; dose 2.00 uM): −0.215 log2 fold change; Dose.FC.LYZ.NS ([1]; dose 10.00 uM): −0.181 log2 fold change; Dose.FC.LYZ.S ([2]; dose 0.08 uM): 0.066 log2 fold change; Dose.FC.LYZ.S ([2]; dose 0.40 uM): −0.217 log2 fold change; Dose.FC.LYZ.S ([2]; dose 2.00 uM): −0.208 log2 fold change; Dose.FC.LYZ.S ([2]; dose 10.00 uM): −0.254 log2 fold change; Dose.FC.CTG (ENR+CD organoids; dose 0.08 uM): 0.165 log2 fold change; Dose.FC.CTG (ENR+CD organoids; dose 0.40 uM): −0.450 log2 fold change; Dose.FC.CTG (ENR+CD organoids; dose 2.00 uM): −0.804 log2 fold change; Dose.FC.CTG (ENR+CD organoids; dose 10.00 uM): −1.026 log2 fold change |
| Cl.Cl.NC1(c2ccc(-c3nc4ccn5c(=O)[nH]nc5c4cc3-c3ccccc3)cc2)CCC1 [MK-2206 2HCl] | – | – | – | – | – | – | – | – | – | – | – | – | – | – | – | – | 0.205 | −0.550 | −1.587 | −2.058 | Dose.FC.LYZ.NS ([1]; dose 0.08 uM): 0.024 log2 fold change; Dose.FC.LYZ.NS ([1]; dose 0.40 uM): −0.063 log2 fold change; Dose.FC.LYZ.NS ([1]; dose 2.00 uM): −0.182 log2 fold change; Dose.FC.LYZ.NS ([1]; dose 10.00 uM): −0.236 log2 fold change; Dose.FC.LYZ.S ([2]; dose 0.08 uM): 0.071 log2 fold change; Dose.FC.LYZ.S ([2]; dose 0.40 uM): 0.083 log2 fold change; Dose.FC.LYZ.S ([2]; dose 2.00 uM): −0.239 log2 fold change; Dose.FC.LYZ.S ([2]; dose 10.00 uM): −0.367 log2 fold change; Z.CTG (ENR+CD organoids; dose 0.08 uM): 0.169; Z.CTG (ENR+CD organoids; dose 0.40 uM): −0.055; Z.CTG (ENR+CD organoids; dose 2.00 uM): −0.425; Z.CTG (ENR+CD organoids; dose 10.00 uM): −1.290; Dose.FC.CTG (ENR+CD organoids; dose 0.08 uM): 0.071 log2 fold change; Dose.FC.CTG (ENR+CD organoids; dose 0.40 uM): −0.023 log2 fold change; Dose.FC.CTG (ENR+CD organoids; dose 2.00 uM): −0.178 log2 fold change; Dose.FC.CTG (ENR+CD organoids; dose 10.00 uM): −0.540 log2 fold change |
| C[C@](O)(COc1ccc(C#N)cc1)C(=O)Nc1ccc(C#N)c(C(F)(F)F)c1 [MK-2866 (GTx-024)] | – | – | – | – | – | – | – | – | – | – | – | – | – | – | – | – | 0.309 | 0.241 | 0.310 | −0.510 | Dose.FC.LYZ.NS ([1]; dose 0.08 uM): 0.035 log2 fold change; Dose.FC.LYZ.NS ([1]; dose 0.40 uM): 0.028 log2 fold change; Dose.FC.LYZ.NS ([1]; dose 2.00 uM): 0.036 log2 fold change; Dose.FC.LYZ.NS ([1]; dose 10.00 uM): −0.059 log2 fold change; Dose.FC.LYZ.S ([2]; dose 0.08 uM): 0.072 log2 fold change; Dose.FC.LYZ.S ([2]; dose 0.40 uM): 0.050 log2 fold change; Dose.FC.LYZ.S ([2]; dose 2.00 uM): 0.078 log2 fold change; Dose.FC.LYZ.S ([2]; dose 10.00 uM): −0.072 log2 fold change; Z.CTG (ENR+CD organoids; dose 0.08 uM): 0.003; Z.CTG (ENR+CD organoids; dose 0.40 uM): −0.474; Z.CTG (ENR+CD organoids; dose 2.00 uM): −0.210; Z.CTG (ENR+CD organoids; dose 10.00 uM): −0.877; Dose.FC.CTG (ENR+CD organoids; dose 0.08 uM): 0.001 log2 fold change; Dose.FC.CTG (ENR+CD organoids; dose 0.40 uM): −0.198 log2 fold change; Dose.FC.CTG (ENR+CD organoids; dose 2.00 uM): −0.088 log2 fold change; Dose.FC.CTG (ENR+CD organoids; dose 10.00 uM): −0.367 log2 fold change |
